{"source": "patent US20240182513A1", "about": "“SEPARATION OF METAL IONS FROM A SAMPLE USING GLYCOLIPIDS” (ARIZONA BOARD OF REGENTS ON BEHALF OF THE UNIVERSITY OF …, priority 2021, published 2024)", "key": {"[1]": {"test": "Example 2.1 rhamnolipid precipitation, filtration, centrifugation: magnesium", "conditions": "for Treatment 2: Rhamnolipid and Filtration Cf / Treatment 3: Rhamnolipid and Centrifugation Cc / Treatment 1: Rhamnolipid Only Cr: magnesium concentration after treatment", "experimental": "(§1) Structural variants of synthetic glycolipids were used to show the effect of the number and length of the hydrophobic tail(s) on rhamnolipid as a chemical precipitant. […] Solutions (10 mM) were made using nanopure water (≥18 MΩ-cm) then adjusted to a pH of 6.9±0.05 with HNO3 and NaOH. These solutions were made in advance and stored in the cold room for up to one month. They were brought to room temperature before each experiment.\n(§2) Three metals were tested for binding with rhamnolipid. Lead as […] (Fisher Scientific, Waltham, MA, 99% purity), was chosen to represent a metal with high rhamnolipid-metal conditional stability constant; lanthanum as La(NO3)3 6(H2O) (Sigma-Aldrich, St. Louis, MO, 99.99% purity) was chosen as a representative REE; and magnesium as Mg(NO3)2 6(H2O) (Sigma-Aldrich, St. Louis, MO, 99% purity) was chosen to represent a metal with a low rhamnolipid-metal conditional stability constant (Hogan et al., 2017). Metal solutions (5 mM) were made using nanopure water (≥18 MΩ-cm) in 20 ml glass scintillation vials. All solutions were used within 15 min to ensure minimal adsorption to the glass vial.\n(§3) Three glycolipid-based treatments were evaluated to remove metal from solution: (1) the addition of glycolipid with no further treatment (gravitational precipitation), (2) the addition of a glycolipid followed by filtration or (3) the addition of a glycolipid followed by centrifugation. Each metal (Pb, La, and Mg) was evaluated separately with each of the glycolipid structures. For each experiment, a metal solution was mixed with a glycolipid solution in a 1.7 ml reaction tube at varying molar ratios of glycolipid to metal: 0:1 (glycolipid-free control), 2:1, 5:1, and 10:1. The reactions were mixed in the order of nanopure water (≥18 MΩ-cm), glycolipid solution (10 mM), then metal solution (5 mM). The metal and glycolipid solutions were continuously stirred as they were aliquoted into the reaction tubes. The experiment was performed in triplicate.\n(§4) The reaction tubes were mixed overnight (16 to 24 h) and then three samples were collected from each tube to measure the effect of each of the three treatments: a glycolipid only treatment sample, a filtration treatment sample, and a centrifugation treatment sample. Briefly, for the glycolipid only treatment samples all tubes were vortexed for approximately 5 sec immediately before removing 0.1 ml into a dilution tube of 2% trace metal grade nitric acid (12 to 14 ml) to minimize the settling of particles. For the filtration samples each reaction tube was vortexed for 5 sec and then a 0.6 ml aliquot was collected with a 1 ml syringe. A GHP acrodisc disk filter (hydrophilic polypropylene membrane, 0.45 μm pore size, 25 mm disc diameter) from Pall Life Sciences (Port Washington, New York) was then placed onto the end of the syringe and the solution was pushed through the filter. The void space in the disk filter holds approximately 0.5 ml, therefore around 0.1 ml of filtrate was collected into a dilution tube. For the centrifugation sample, the remaining solution was centrifuged at 10,000 RCF for 15 min. Approximately 0.1 ml of the supernatant was aliquoted into a dilution tube. Following collection, all samples were taken for metal analysis using ICP-MS."}, "[2]": {"test": "Example 2.1 rhamnolipid precipitation, filtration, centrifugation: lanthanum", "conditions": "for Treatment 2: Rhamnolipid and Filtration Cf / Treatment 3: Rhamnolipid and Centrifugation Cc / Treatment 1: Rhamnolipid Only Cr: lanthanum concentration after treatment; for Treatment 1: Rhamnolipid Only (Rr) efficiency of removal / Treatment 2: Rhamnolipid and Filtration (Rf) efficiency of removal / Treatment 3: Rhamnolipid and Centrifugation (Rc) efficiency of removal: lanthanum", "experimental": "as §1, §2, §3, §4"}, "[3]": {"test": "Example 2.1 rhamnolipid precipitation, filtration, centrifugation: lead", "conditions": "for Treatment 2: Rhamnolipid and Filtration Cf / Treatment 3: Rhamnolipid and Centrifugation Cc / Treatment 1: Rhamnolipid Only Cr: lead concentration after treatment; for Treatment 1: Rhamnolipid Only (Rr) efficiency of removal / Treatment 2: Rhamnolipid and Filtration (Rf) efficiency of removal / Treatment 3: Rhamnolipid and Centrifugation (Rc) efficiency of removal: lead", "experimental": "as §1, §2, §3, §4"}}}
{"smiles": "CCCCCCCCCC(CC(=O)O)OC(=O)CC(CCCCCCCCC)OC1O[C@@H](C)[C@H](O)[C@@H](O)[C@H]1O", "note": "(stereo partly drawn) [Rha C12C12, rhamnosyl-β-hydroxydodecanoyl-62-hydroxydodecanoate]", "values": [{"measurement": "Treatment 2: Rhamnolipid and Filtration Cf", "setting": "[1]; molar ratio 2 to 1", "value": "0.182 ± 0.055", "unit": "mmol/L"}, {"measurement": "Treatment 3: Rhamnolipid and Centrifugation Cc", "setting": "[1]; molar ratio 2 to 1", "value": "0.276 ± 0.005", "unit": "mmol/L"}, {"measurement": "Treatment 1: Rhamnolipid Only Cr", "setting": "[1]; molar ratio 5 to 1", "value": "0.285 ± 0.005", "unit": "mmol/L"}, {"measurement": "Treatment 2: Rhamnolipid and Filtration Cf", "setting": "[1]; molar ratio 5 to 1", "value": "0.135 ± 0.074", "unit": "mmol/L"}, {"measurement": "Treatment 3: Rhamnolipid and Centrifugation Cc", "setting": "[1]; molar ratio 5 to 1", "value": "0.273 ± 0.014", "unit": "mmol/L"}, {"measurement": "Treatment 1: Rhamnolipid Only Cr", "setting": "[1]; molar ratio 10 to 1", "value": "0.285 ± 0.012", "unit": "mmol/L"}, {"measurement": "Treatment 2: Rhamnolipid and Filtration Cf", "setting": "[1]; molar ratio 10 to 1", "value": "0.008 ± 0.004", "unit": "mmol/L"}, {"measurement": "Treatment 3: Rhamnolipid and Centrifugation Cc", "setting": "[1]; molar ratio 10 to 1", "value": "0.266 ± 0.012", "unit": "mmol/L"}, {"measurement": "Treatment 1: Rhamnolipid Only Cr", "setting": "[1]; molar ratio rhamnolipid:magnesium 2 to 1", "value": "0.281 ± 0.002", "unit": "mmol/L"}, {"measurement": "Treatment 2: Rhamnolipid and Filtration (Rf) efficiency of removal", "setting": "[1]; magnesium, molar ratio 2 to 1", "value": "(32.1%)"}, {"measurement": "Treatment 2: Rhamnolipid and Filtration (Rf) efficiency of removal", "setting": "[1]; magnesium, molar ratio 5 to 1", "value": "(49.4%)"}, {"measurement": "Treatment 2: Rhamnolipid and Filtration (Rf) efficiency of removal", "setting": "[1]; magnesium, molar ratio 10 to 1", "value": "(97.1%)"}, {"measurement": "Treatment 3: Rhamnolipid and Centrifugation (Rc) efficiency of removal", "setting": "[1]; magnesium, molar ratio 10 to 1", "value": "(0.4%)"}, {"measurement": "Treatment 2: Rhamnolipid and Filtration Cf", "setting": "[2]; molar ratio 2 to 1", "value": "0.119 ± 0.007", "unit": "mmol/L"}, {"measurement": "Treatment 3: Rhamnolipid and Centrifugation Cc", "setting": "[2]; molar ratio 2 to 1", "value": "0.164 ± 0.013", "unit": "mmol/L"}, {"measurement": "Treatment 1: Rhamnolipid Only Cr", "setting": "[2]; molar ratio 5 to 1", "value": "0.197 ± 0.006", "unit": "mmol/L"}, {"measurement": "Treatment 2: Rhamnolipid and Filtration Cf", "setting": "[2]; molar ratio 5 to 1", "value": "0.044 ± 0.009", "unit": "mmol/L"}, {"measurement": "Treatment 3: Rhamnolipid and Centrifugation Cc", "setting": "[2]; molar ratio 5 to 1", "value": "0.074 ± 0.003", "unit": "mmol/L"}, {"measurement": "Treatment 1: Rhamnolipid Only Cr", "setting": "[2]; molar ratio 10 to 1", "value": "0.263 ± 0.007", "unit": "mmol/L"}, {"measurement": "Treatment 2: Rhamnolipid and Filtration Cf", "setting": "[2]; molar ratio 10 to 1", "value": "0.035 ± 0.001", "unit": "mmol/L"}, {"measurement": "Treatment 3: Rhamnolipid and Centrifugation Cc", "setting": "[2]; molar ratio 10 to 1", "value": "0.057 ± 0.004", "unit": "mmol/L"}, {"measurement": "Treatment 1: Rhamnolipid Only Cr", "setting": "[2]; molar ratio rhamnolipid:lanthanum 2 to 1", "value": "0.184 ± 0.014", "unit": "mmol/L"}, {"measurement": "Treatment 1: Rhamnolipid Only (Rr) efficiency of removal", "setting": "[2]; molar ratio 2 to 1", "value": "(31.5%)"}, {"measurement": "Treatment 2: Rhamnolipid and Filtration (Rf) efficiency of removal", "setting": "[2]; molar ratio 2 to 1", "value": "(55.7%)"}, {"measurement": "Treatment 3: Rhamnolipid and Centrifugation (Rc) efficiency of removal", "setting": "[2]; molar ratio 2 to 1", "value": "(38.7%)"}, {"measurement": "Treatment 1: Rhamnolipid Only (Rr) efficiency of removal", "setting": "[2]; molar ratio 5 to 1", "value": "(26.4%)"}, {"measurement": "Treatment 2: Rhamnolipid and Filtration (Rf) efficiency of removal", "setting": "[2]; molar ratio 5 to 1", "value": "(83.7%)"}, {"measurement": "Treatment 3: Rhamnolipid and Centrifugation (Rc) efficiency of removal", "setting": "[2]; molar ratio 5 to 1", "value": "(72.4%)"}, {"measurement": "Treatment 1: Rhamnolipid Only (Rr) efficiency of removal", "setting": "[2]; molar ratio 10 to 1", "value": "(2.0%)"}, {"measurement": "Treatment 2: Rhamnolipid and Filtration (Rf) efficiency of removal", "setting": "[2]; molar ratio 10 to 1", "value": "(86.9%)"}, {"measurement": "Treatment 3: Rhamnolipid and Centrifugation (Rc) efficiency of removal", "setting": "[2]; molar ratio 10 to 1", "value": "(78.7%)"}, {"measurement": "Treatment 2: Rhamnolipid and Filtration Cf", "setting": "[3]; molar ratio 2 to 1", "value": "0.069 ± 0.018", "unit": "mmol/L"}, {"measurement": "Treatment 3: Rhamnolipid and Centrifugation Cc", "setting": "[3]; molar ratio 2 to 1", "value": "0.146 ± 0.008", "unit": "mmol/L"}, {"measurement": "Treatment 1: Rhamnolipid Only Cr", "setting": "[3]; molar ratio 5 to 1", "value": "0.204 ± 0.004", "unit": "mmol/L"}, {"measurement": "Treatment 2: Rhamnolipid and Filtration Cf", "setting": "[3]; molar ratio 5 to 1", "value": "0.049 ± 0.021", "unit": "mmol/L"}, {"measurement": "Treatment 3: Rhamnolipid and Centrifugation Cc", "setting": "[3]; molar ratio 5 to 1", "value": "0.047 ± 0.003", "unit": "mmol/L"}, {"measurement": "Treatment 1: Rhamnolipid Only Cr", "setting": "[3]; molar ratio 10 to 1", "value": "0.249 ± 0.10", "unit": "mmol/L"}, {"measurement": "Treatment 2: Rhamnolipid and Filtration Cf", "setting": "[3]; molar ratio 10 to 1", "value": "0.059 ± 0.028", "unit": "mmol/L"}, {"measurement": "Treatment 3: Rhamnolipid and Centrifugation Cc", "setting": "[3]; molar ratio 10 to 1", "value": "0.129 ± 0.002", "unit": "mmol/L"}, {"measurement": "Treatment 1: Rhamnolipid Only Cr", "setting": "[3]; molar ratio rhamnolipid:lead 2 to 1", "value": "0.211 ± 0.010", "unit": "mmol/L"}, {"measurement": "Treatment 1: Rhamnolipid Only (Rr) efficiency of removal", "setting": "[3]; molar ratio 2 to 1", "value": "(22.4%)"}, {"measurement": "Treatment 2: Rhamnolipid and Filtration (Rf) efficiency of removal", "setting": "[3]; molar ratio 2 to 1", "value": "(74.8%)"}, {"measurement": "Treatment 3: Rhamnolipid and Centrifugation (Rc) efficiency of removal", "setting": "[3]; molar ratio 2 to 1", "value": "(46.4%)"}, {"measurement": "Treatment 1: Rhamnolipid Only (Rr) efficiency of removal", "setting": "[3]; molar ratio 5 to 1", "value": "(25.0%)"}, {"measurement": "Treatment 2: Rhamnolipid and Filtration (Rf) efficiency of removal", "setting": "[3]; molar ratio 5 to 1", "value": "(81.8%)"}, {"measurement": "Treatment 3: Rhamnolipid and Centrifugation (Rc) efficiency of removal", "setting": "[3]; molar ratio 5 to 1", "value": "(82.8%)"}, {"measurement": "Treatment 1: Rhamnolipid Only (Rr) efficiency of removal", "setting": "[3]; molar ratio 10 to 1", "value": "(8.6%)"}, {"measurement": "Treatment 2: Rhamnolipid and Filtration (Rf) efficiency of removal", "setting": "[3]; molar ratio 10 to 1", "value": "(78.3%)"}, {"measurement": "Treatment 3: Rhamnolipid and Centrifugation (Rc) efficiency of removal", "setting": "[3]; molar ratio 10 to 1", "value": "(52.8%)"}]}
